Drawing on PMC11121535, “Inhibition of Shikimate Kinase from Methicillin-Resistant Staphylococcus aureus by Benzimidazole Derivatives. Kinetic, Computational, Toxicological, and Biological Activity Studies” (International Journal of Molecular Sciences, 2024), this text covers Ki and inhibition for four compounds.

Test [1] addresses T1, shikimate kinase (SaSK) (Staphylococcus aureus, UniProt Q5HFM1).
T1 construct: gene aroK
As to the kind of experiment: pyruvate kinase/lactate dehydrogenase coupled assay with purified SaSK; Lineweaver-Burk (Ki […] vs shikimate, […] vs ATP). It is filed as biochemical.

For test [2], the target named is T2, shikimate kinase (SaSK) (Staphylococcus aureus, UniProt Q5HFM1).
T2 construct: gene aroK
T2 sequence (Q5HFM1 1-174): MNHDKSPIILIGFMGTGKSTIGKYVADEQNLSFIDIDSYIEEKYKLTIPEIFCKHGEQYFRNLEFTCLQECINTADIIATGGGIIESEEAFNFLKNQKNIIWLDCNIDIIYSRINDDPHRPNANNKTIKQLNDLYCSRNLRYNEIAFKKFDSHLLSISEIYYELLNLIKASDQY
In words: biochemical. Also on record: Coupled PK/LDH assay of purified SaSK, NADH oxidation at 340 nm, fixed-concentration inhibition screen, 25 °C. As for the experimental part:
The activity of purified SaSK was measured by a coupled assay described by Favela et al., [67] following the oxidation of NADH to NAD, monitored at 340 nm using an Hp Agilent 8453 UV-VIS spectrophotometer. The assay mixture contained 100 mM Tris-HCl pH 7.6, 5 mM MgCl2, 100 mM KCl, 2 mM ATP, 1 mM shikimate, 1 mM phosphoenolpyruvate, 6 μg/mL pyruvate kinase, 6 μg/mL lactate dehydrogenase, 0.25 mM NADH, 10% of dimethyl sulfoxide (DMSO), and 70 ng of purified SaSK protein. All assays were performed in triplicate at 25 °C. It is important to mention that at the percentage of DMSO used, the activity of the enzyme was not affected. The primary screening of the benzimidazole compound library was carried out at a fixed concentration of 200 µM or at the maximum solubility possible for compounds with poor solubility in assay conditions. All the compounds were dissolved in DMSO.

For test [3], the target named is T1, shikimate kinase (SaSK). As to the kind of experiment: pyruvate kinase/lactate dehydrogenase coupled assay with purified SaSK; Lineweaver-Burk (Ki […] vs shikimate, […] vs ATP). The test is classed as biochemical. This is another data set of the same source.
For test [4], the target named is T1, shikimate kinase (SaSK). In words: coupled enzyme assay, purified SaSK, % inhibition at […]. The test is classed as biochemical.

Molecules are shown by their SMILES. Like-named read-outs stand apart in the source and are kept apart here.

The term Ki denotes a dissociation constant, usually derived from enzyme kinetics or from competition with a known ligand. Broadly, the inhibition is the percentage by which the read-out fell short of the control. The compound `O=C(NN=Cc1ccc([N+](=O)[O-])o1)c1ccc2[nH]cnc2c1` [C1, N′-[(5-Nitrofuran-2-yl)methylene]-1H-benzimidazole-5-carbohydrazide] had an inhibition constant Ki in test [1] of 48 µM. In addition, the inhibition at 70 µM in test [2] is 50%.

In the case of `Cn1c(C(F)(F)F)nc2cc(C(=O)NN=Cc3ccc([N+](=O)[O-])o3)ccc21` [C2, 1-Methyl-N′-[(5-nitrofuran-2-yl)methylene]-2-(trifluoromethyl)-1H-benzimidazole-5-carbohydrazide], the affinity in test [3], expressed as Ki, was 50 µM. Moreover, the inhibition at 100 µM in test [2] is 60%.

In the case of `O=C(NN=Cc1ccc([N+](=O)[O-])o1)c1ccc2[nH]c(C(F)(F)F)nc2c1` [C3, N′-[(5-Nitrofuran-2-yl)methylene]-2-(trifluoromethyl)-1H-benzimidazole-5-carbohydrazide], in test [4], at 100 µM the inhibition was 43%.

Compound `Cn1cnc2cc(C(=O)NN=Cc3ccc([N+](=O)[O-])o3)ccc21` [C4, 1-Methyl-N′-[(5-nitrofuran-2-yl)methylene]-1H-benzimidazole-5-carbohydrazide] registered an inhibition at 100 µM in test [4] of 40%.
